ChEMBL document CHEMBL1123908, “Endoperoxides as potential antimalarial agents” (J Med Chem, 1987)

Assays:
Format in all cases: functional, organism-based
[1] = test system: Mus musculus; experiment: Blood schizonticidal activity against Plasmodium berghei in mice (Mus musculus) at the dose of 160 mg/kg; Inactive; parameters: dose 160 mg/kg
[2] = test system: Mus musculus; experiment: Blood schizonticidal activity against Plasmodium berghei in mice (Mus musculus) at the dose of 40 mg/kg; Inactive; parameters: dose 40 mg/kg
[3] = test system: Mus musculus; experiment: Blood schizonticidal activity against Plasmodium berghei in mice (Mus musculus) at the dose of 640 mg/kg; Inactive; parameters: dose 640 mg/kg

CC12CCC(OC(=O)c3ccccc3)C(C)(C)C13CCC(C2)OO3 (configuration not stated)
Not Active: Activity call [1] | Blood schizonticidal activity [2] | Activity (active/inactive) [3]

CCCCOC(=O)OC1CCC2(C)CC3CCC2(OO3)C1(C)C (configuration not stated)
Not Active: Activity call [1] | Blood schizonticidal activity [2] | Activity (active/inactive) [3]

CC(=O)OC1CCC2(C)CC3C=C[C@]2(OO3)C1(C)C (some centres not stated)
Not Active: Activity call [1] | Blood schizonticidal activity [2] | Activity (active/inactive) [3]

CC12CCC(O)C(C)(C)C13CCC(C2)OO3 (configuration not stated)
Not Active: Activity call [1] | Blood schizonticidal activity [2] | Activity (active/inactive) [3]

CC12CCC(OC(=O)c3ccccc3)C(C)(C)[C@@]13C=CC(C2)OO3 (some centres not stated)
Not Active: Activity call [1] | Blood schizonticidal activity [2] | Activity (active/inactive) [3]

CC(C)CCCC(C)[C@H]1CC[C@H]2C3CC=C4C[C@@H](OC(=O)OC5CCC6(C)CC7C=CC6(OO7)C5(C)C)CCC4(C)[C@H]3CCC12C (some centres not stated)
Not Active: Activity call [1] | Blood schizonticidal activity [2] | Activity (active/inactive) [3]

CC12CCC(O)C(C)(C)[C@@]13C=CC(C2)OO3 (some centres not stated)
Not Active: Activity call [1] | Blood schizonticidal activity [2] | Activity (active/inactive) [3]

CC(=O)OC(C)CCC12OO[C@@H](C=C1C)CC2(C)C (some centres not stated)
Not Active: Activity call [1] | Blood schizonticidal activity [2] | Activity (active/inactive) [3]

CC(=O)OC1CCC2(C)CC3CCC2(OO3)C1(C)C (configuration not stated)
Not Active: Activity call [1] | Blood schizonticidal activity [2] | Activity (active/inactive) [3]
